Measured values: patent US20040023945A1, “CYCLIC AMP-SPECIFIC PHOSPHODIESTERASE INHIBITORS” (ICOS Corporation, priority 1999, published 2004)
Where two headings read alike, the source gives them in different places. One block for each compound: values may come before it.

How the values were obtained:
[1] = test system: human peripheral blood lymphocytes; assay: Lipopolysaccharide-stimulated TNFα release from human peripheral blood lymphocytes; format: cell-based
Protocol: The compounds of structural formula (II) also were tested for an ability to reduce TNFα secretion in human peripheral blood lymphocytes. The ability to reduce TNFα secretion is related to the EC50 values (i.e., the effective concentration of the compound capable of inhibiting 50% of the total TNFα).
To assess the ability of a compound to reduce TNFα secretion in human peripheral blood lymphocytes (PBL), the following tests were performed.
Heparinized blood (approximately 30 mL) drawn from human volunteers was mixed 1:1 with Dulbecco's modified phosphate-buffered saline. This mixture was mixed 1:1 with HISTOPAQUE® and centrifuged at 1,500 rpm at room temperature without braking in the swinging bucket of a Beckman model TJ6 centrifuge. Erythrocytes were centrifuged to the bottom of the tubes, and serum remained at the surface of the tubes. A layer containing lymphocytes sedimented between the serum and HISTOPAQUE® layers, and was removed by aspiration to a fresh tube. The cells were quantified and adjusted to 3×10^6 cells/mL and a 100 μL aliquot is placed into the wells of a 96 well plate. Test compounds and RPMI media (Gibco/BRL Life Sciences) are added to each of the wells 15 minutes prior to addition of bacterial LPS ([…]). The mixture was allowed to incubate for 20 hours at 37° C. in a humidified chamber. The cells then were separated by centrifuging at 800 rpm for 5 minutes at room temperature. An aliquot of 180 μL of supernatant was transferred to a new plate for determination of TNFα concentration. TNFα protein in the cell supernatant fluids was measured using a commercially available enzyme-linked immunosorbent assay (ELISA) (CYTOSCREEN® Immunoassay Kit from Biosource International).
The cell-based assay provided the following results for various pyrrolidine compounds of the present invention. The EC50 values (i.e., effective concentration of the compound capable of inhibiting 50% of the total TNFα) illustrate the ability of the present compounds to inhibit LPS-stimulated TNFα release from human PBL.

[2] = Mouse locomotor activity assay (decrease in spontaneous mobility); conditions: female, Balb/c, in vivo
Protocol: The purpose of this study was to determine the efficacy of PDE4 inhibitors in vivo in an LPS mouse model together with a determination with respect to central nervous system (CNS) side-effects manifested by a decrease in spontaneous mobility.
The test animals were female Balb/c mice, having an average weight of about 20 g. The PDE4 inhibitors, formulated in 30% Cremophor® EL, were administered via intraperitoneal (i.p.) injections at doses of 0.1, 1.0, 10.0, and 100 mg/kg. Individual dose volumes (about 150 μL) were adjusted based on the body weights measured. One hour later, 5 mg/kg LPS in a final volume of 200 μL was injected via the tail vein to each animal. Ninety minutes following the LPS treatment, the animals were bled and serum samples were collected before being stored at −70° C. until assayed.
Movement of the X-Y plane, or rearing up on the hind legs, was quantified by counting the number of “light-beam” crosses per unit of time. A decrease in the number of activity events is directly proportional to the mobility or immobilization of the animal. The quantitative scoring correlated well with the subjective measurements described above.

human recombinant PDE4B = molecular target: T1, human recombinant PDE4B (Homo sapiens, UniProt Q07343); assay: Inhibition of human recombinant PDE4B; format: biochemical; conditions: read-out: PDE4B IC50
T1 construct: made in house; host or cells: Saccharomyces cerevisiae strain YI23 harboring HDUN2.32
T1 sequence (Q07343 whole entry): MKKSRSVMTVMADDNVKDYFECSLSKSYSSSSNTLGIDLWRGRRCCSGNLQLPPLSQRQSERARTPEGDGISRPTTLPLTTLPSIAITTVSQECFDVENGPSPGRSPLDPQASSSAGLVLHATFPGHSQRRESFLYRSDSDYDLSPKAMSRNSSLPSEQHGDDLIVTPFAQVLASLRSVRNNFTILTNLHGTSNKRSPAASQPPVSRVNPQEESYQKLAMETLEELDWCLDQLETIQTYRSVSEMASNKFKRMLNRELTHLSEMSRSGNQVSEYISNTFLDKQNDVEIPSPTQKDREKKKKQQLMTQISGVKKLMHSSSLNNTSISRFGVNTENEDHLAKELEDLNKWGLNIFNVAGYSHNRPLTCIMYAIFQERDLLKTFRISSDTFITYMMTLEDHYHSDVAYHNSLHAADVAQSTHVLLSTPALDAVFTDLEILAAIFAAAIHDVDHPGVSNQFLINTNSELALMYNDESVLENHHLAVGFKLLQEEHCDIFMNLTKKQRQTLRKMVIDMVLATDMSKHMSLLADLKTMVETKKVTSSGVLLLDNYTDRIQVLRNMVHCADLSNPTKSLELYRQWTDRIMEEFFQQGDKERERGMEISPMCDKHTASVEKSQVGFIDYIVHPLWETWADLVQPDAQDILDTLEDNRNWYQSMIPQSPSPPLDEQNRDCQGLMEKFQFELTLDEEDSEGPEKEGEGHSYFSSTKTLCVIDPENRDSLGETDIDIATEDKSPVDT

[3] = test system: serum TNFα levels in LPS-injected mice; assay: Inhibition of serum TNFα levels in LPS-injected mice (Mouse/TNFα ED50); format: in vivo; conditions: for ED50: Mus musculus
Protocol: In order to assess the ability of a compound to reduce serum TNFα levels in mammals, the following protocol was employed. […] Accordingly, in vivo efficacy of a PDE4 reducing compound was shown by dosing with compound and measuring reduction of serum TNFα levels in LPS-injected mice. Female C3H mice, 20-25 gm body weight, were fasted overnight and dosed intraperitoneally with test compound in appropriate vehicle 60 minutes before LPS injection. Five μg of LPS was then injected intraperitoneally into the mice. Ninety minutes after LPS injection, mice were bled from the heart. Blood was allowed to clot overnight at 4° C. Samples were centrifuged for 10 minutes in a microcentrifuge and the serum removed and stored at −20° C. until analysis. Serum levels of TNFα were subsequently measured using a commercially available ELISA kit (Genzyme) following the protocol enclosed in the kit. The percent of inhibition of serum TNFα levels caused by the compound was determined relative to serum TNFα levels in control mice receiving vehicle alone. […]

recombinant human PDE4 = assay: Inhibition of recombinant human PDE4 (cAMP hydrolysis); conditions: read-out: PDE4 IC50
mouse = assay: Subjective assessment of mouse immobility (CNS side effects); format: in vivo; conditions: for CNS Side Effects: subjective assessment of mouse immobility, 60 minutes
ferret = assay: Emetic modeling in the ferret following oral and intravenous dosing; format: in vivo, Mustela putorius furo
Protocol: This study was conducted to investigate the emetogenic properties of PDE4 inhibitors in vivo. The ferret previously has been established as a valuable tool for assessing emesis following exposure to test compounds. […] Therefore, lack of and/or decrease in emetic potential of test compounds in ferrets predicts a favorable nonemetic effect in humans. Emesis is a complex physiological response to noxious agents that can be intiated peripherally or centrally.
The test animals were adult, castrated, and descented male ferrets (species=Mustela putorius furo, Strain=Sable) ranging in weight from about 1 to 1.5 kg. The tests were performed in quadruplicate on animals that were naive to PDE4 inhibitors. The PDE4 inhibitors were formulated in 10% Polyoxyl-35 castor oil (CREMOPHOR® EL, available from BASF Corporation, Parsippany, N.J.) in phosphate buffered saline (PBS), and were administered via i.v. injections into an indwelling catheter surgically positioned in the right external jugular vein at a rate of 0.66 mL per kg body weight. PDE4 inhibitors for oral consumption were formulated in 30% CREMOPHOR® EL in PBS, and administered by intubating animals with a 16-gauge feeding needle into the stomach. The animals received the PDE4 inhibitors in a volume of 1.33 mL per kg body weight.
All animals were fasted for 8 to 12 hours prior to administration of PDE4 inhibitors. Following administration of a PDE4 inhibitor, emetic and behavioral responses were quantified for three hours post dosing. The total number of emetic responses and vomiting episodes were quantified during the observation interval. In addition, latency time to first emetic episode, duration of emesis episodes, and gross behavioral changes including ataxia, profuse and viscous salivation, mouth clawing, hyperventilation, backward walking, flattened body posture, hyperactivity, lip licking, and general appearance were recorded.
For comparative purposes, the emetogenic effect of Samples 66 and 69 were tested intravenously at 1.0, 2.5, 5.0, and 10 mg/kg and orally at 2.5, 10, 17, and 25 mg/kg.

[4] = Homo sapiens, Lymphocyte, LPS-stimulated TNFα release from human PBL, read-out: PBL/TNFα EC50
[5] = ip, read-out: ED50, effective dose that decreases spontaneous mobility 50% of control
[6] = Homo sapiens, Lymphocyte, read-out: Cell based EC50
[7] = LPS-stimulated TNFα release from human PBL, read-out: PBL/TNFα EC50
[8] = stereoisomer comparison table, read-out: Mouse/TNFα ED50
[9] = read-out: Mouse LPS Challenge ED50
[10] = intraperitoneal, read-out: Mouse Inhibition of Spontaneous Mobility ED50

EC50 [1, 4]: 603 nM
ED50 [2, 5]: > 50 mg/kg
SMILES: COc1ccc([C@@H]2CN(C(=O)[C@H](C)O)C[C@@]2(C)[C@@H](C)O)cc1OC1CCCC1 [Example 67, 1-[3-((1R)-1-Hydroxyethyl)(3S,4S)-4-(3-cyclopentyloxy-4-methoxyphenyl)-3-methylpyrrolidinyl](2S)-2-hydroxypropan-1-one]

EC50 [1, 6]: 30 nM
IC50 (human recombinant PDE4B): 20 nM
SMILES: COc1ccc([C@@H]2CN(C(=O)[C@H](N)CO)C[C@@]2(C)[C@@H](C)O)cc1OCC1CC1.Cl [Example 109, hydrochloride]

EC50 [1, 7]: 57.8 nM
IC50 (recombinant human PDE4; human recombinant PDE4): 18.3 nM
IC50 (recombinant human PDE4; stereoisomer comparison table): 18.3 nM
SMILES: COC(=O)N1C[C@@H](c2ccc(OC)c(OC3Cc4ccccc4C3)c2)[C@](C)(C(C)O)C1 (some centres unmarked) [Sample No. 61]
Mouse/TNFα ED50 ([3]; stereoisomer comparison table): 0.2 mg/kg
CNS Side Effects (mouse; i.p. 1, 10 and 100 mg/kg): Little to no effect (at 50 mg/kg)

IC50 (recombinant human PDE4; stereoisomer comparison table): 61.1 nM
SMILES: COC(=O)N1CC(c2ccc(OC)c(OC3CCCC3)c2)[C@@](C)([C@@H](C)O)C1 (some centres unmarked) [(B)]
ED50 [3, 8]: 12 mg/kg
CNS Side Effects (mouse; i.p. 1, 10 and 100 mg/kg): No effect

SMILES: COC(=O)N1C[C@H](c2ccc(OC)c(OC3CCCC3)c2)[C@@](C)([C@H](C)O)C1 [(A)]
EC50 [1, 4]: 57 nM
ED50 [3, 8]: 7 mg/kg
IC50 (recombinant human PDE4; human recombinant PDE4): 13.3 nM
IC50 (recombinant human PDE4; stereoisomer comparison table): 13.3 nM
mouse mobility assessment (footnote statement) (mouse; i.p. 1, 10 and 100 mg/kg, 60 minutes time frame): mice were affected at all doses
outcome at the highest dose (mouse; mouse, i.p., highest dose (100 mg/kg)): mice became moribund and died within 10 minutes of treatment
CNS Side Effects (mouse; i.p. 1, 10 and 100 mg/kg): Severe
Number of Emetic Events: Retches (ferret; intravenous 1.0 mg/kg): 0
Number of Emetic Events: Total (ferret; intravenous 1.0 mg/kg): 0
Number of Emetic Events: Vomits (ferret; intravenous 1.0 mg/kg): 0
Responders (ferret; intravenous 1.0 mg/kg): 0/4
Number of Emetic Events: Retches (ferret; intravenous 2.5 mg/kg): 3
Number of Emetic Events: Total (ferret; intravenous 2.5 mg/kg): 3
Number of Emetic Events: Vomits (ferret; intravenous 2.5 mg/kg): 0
Responders (ferret; intravenous 2.5 mg/kg): 1/4
Number of Emetic Events: Retches (ferret; intravenous 5.0 mg/kg): 300
Number of Emetic Events: Total (ferret; intravenous 5.0 mg/kg): 300
Number of Emetic Events: Vomits (ferret; intravenous 5.0 mg/kg): 0
Responders (ferret; intravenous 5.0 mg/kg): 2/2
outcome after intravenous dosing (ferret; intravenous 5 mg/kg body weight): one of the tested animals died almost immediately after dosing
Number of Emetic Events: Retches (ferret; oral 2.5 mg/kg): 0
Number of Emetic Events: Total (ferret; oral 2.5 mg/kg): 0
Number of Emetic Events: Vomits (ferret; oral 2.5 mg/kg): 0
Responders (ferret; oral 2.5 mg/kg): 0/4
Number of Emetic Events: Retches (ferret; oral 10.0 mg/kg): 27
Number of Emetic Events: Total (ferret; oral 10.0 mg/kg): 32
Number of Emetic Events: Vomits (ferret; oral 10.0 mg/kg): 5
Responders (ferret; oral 10.0 mg/kg): 3/4
Number of Emetic Events: Retches (ferret; oral 17.0 mg/kg): 51
Number of Emetic Events: Total (ferret; oral 17.0 mg/kg): 58
Number of Emetic Events: Vomits (ferret; oral 17.0 mg/kg): 7
Responders (ferret; oral 17.0 mg/kg): 3/4
Number of Emetic Events: Retches (ferret; oral 25.0 mg/kg): 88
Number of Emetic Events: Total (ferret; oral 25.0 mg/kg): 114
Number of Emetic Events: Vomits (ferret; oral 25.0 mg/kg): 26
Responders (ferret; oral 25.0 mg/kg): 4/4
emetic response, comparison of compounds (ferret; oral or intravenous): much stronger emetic response than compound (C)

IC50 (recombinant human PDE4; stereoisomer comparison table): 515 nM
SMILES: COC(=O)N1CC(c2ccc(OC)c(OC3CCCC3)c2)[C@](C)([C@H](C)O)C1 (some centres unmarked) [(D)]
CNS Side Effects (mouse; i.p. 1, 10 and 100 mg/kg): No effect

EC50 [1, 7]: 10.2 nM
IC50 (recombinant human PDE4; human recombinant PDE4): 6.8 nM
IC50 (recombinant human PDE4; stereoisomer comparison table): 6.8 nM
SMILES: COC(=O)N1C[C@@H](c2ccc(OC)c(OC3Cc4ccccc4C3)c2)[C@](C)(C(C)O)C1 (some centres unmarked) [Sample No. 62]
Mouse/TNFα ED50 ([3]; stereoisomer comparison table): 0.08 mg/kg
CNS Side Effects (mouse; i.p. 1, 10 and 100 mg/kg): Little to no effect (at 50 mg/kg)

EC50 [1, 6]: 10 nM
ED50 [2, 10]: < 100 mg/kg
IC50 (human recombinant PDE4B): 3 nM
SMILES: COc1ccc([C@@H]2CN(C(=O)[C@@H](O)CO)C[C@@]2(C)[C@@H](C)O)cc1OCC#Cc1ccccc1 [Example 264, (S)-2,3-Dihydroxy-1-{(3S,4S)-3-((R)-1-hydroxyethyl)-4-[4-methoxy-3-(3-phenylprop-2-ynyloxy)phenyl]-3-methylpyrrolidin-1-yl}propan-1-one]
ED50 [3, 9]: 1 mg/kg

ED50 [2, 10]: 100 mg/kg
SMILES: COc1ccc([C@@H]2CN(C(=O)[C@H](N)CO)C[C@@]2(C)[C@@H](C)O)cc1OCC1CC1.Cl [Example 109]
ED50 [3, 9]: 5 mg/kg

EC50 [1, 4]: 272 nM
SMILES: CNC(=O)C(=O)N1C[C@@H](c2ccc(OC)c(OC3CCCC3)c2)[C@](C)([C@@H](C)O)C1 [Example 80, 2-[3-((1R)-1-Hydroxyethyl)(3S,4S)-4-(3-cyclopentyloxy-4-methoxyphenyl)-3-methylpyrrolidinyl]-N-methyl-2-oxoacetamide]

EC50 [1, 4]: 801 nM
SMILES: COc1ccc([C@@H]2CN(c3cccnc3)C[C@@]2(C)[C@@H](C)O)cc1OC1Cc2ccccc2C1 [Example 32, (1R)-1-[(3S,4S)-4-(3-Indan-2-yloxy-4-methoxyphenyl)-3-methyl-1-(3-pyridyl)pyrrolidin-3-yl]ethan-1-ol]

EC50 [1, 4]: 36.2 nM
SMILES: COc1ccc([C@@H]2CN(C(=O)COCc3ccccc3)C[C@@]2(C)[C@@H](C)O)cc1OC1CCCC1 [Example 64, 1-[3-((1R)-1-Hydroxyethyl)(3S,4S)-4-(3-cyclopentyloxy-4-methoxyphenyl)-3-methylpyrrolidinyl]-2-(phenylmethoxy)ethan-1-one]

EC50 [1, 4]: 35 nM
ED50 [2, 5]: 83 mg/kg
SMILES: COc1ccc([C@@H]2CN(c3ccccn3)C[C@@]2(C)[C@@H](C)O)cc1OC1Cc2ccccc2C1 [Example 31, (1R)-1-[(3S,4S)-4-(3-Indan-2-yloxy-4-methoxyphenyl)-3-methyl-1-(2-pyridyl)pyrrolidin-3-yl]ethan-1-ol]
ED50 ([3]; mouse, i.p., LPS challenge, read-out: Mouse/TNFα ED50): 3 mg/kg
